This is an account of results in ChEMBL document CHEMBL4610129, “Discovery of Novel Selective and Orally Bioavailable Phosphodiesterase-1 Inhibitors for the Efficient Treatment of Idiopathic Pulmonary Fibrosis” (J Med Chem, 2020).

Molecules are shown by their SMILES. Active and inactive are the calls of the source. No cut-off for these calls is given here. Where only a bound is given, the exact number is not on record here.

Data set [1] concerns the target T1, Dual specificity calcium/calmodulin-dependent 3',5'-cyclic nucleotide phosphodiesterase 1C (Homo sapiens, UniProt Q14123). Description: Inhibition of PDE1C2 (147 to 531 residues) (unknown origin) at 100 nM using [3H]-cGMP substrate incubated for 15 mins by liquid scintillation counting method relative to control.
The target of data set [2] is T1, Dual specificity calcium/calmodulin-dependent 3',5'-cyclic nucleotide phosphodiesterase 1C. Briefly: Inhibition of PDE1C2 (147 to 531 residues) (unknown origin) using [3H]-cGMP substrate incubated for 15 mins by liquid scintillation counting method.
A short description of data set [3]: Half life in rat liver microsomes. The data set is classed as ADME, Microsome.
Data set [4] deals with Rattus norvegicus. Description: Anti-pulmonary fibrosis activity in Sprague-Dawley rat model of BLM-induced idiopathic pulmonary fibrosis assessed as reduction in end-inspiratory pause at 150 mg/kg, po dosed daily for 28 days by mka noninvasive pulmonary monitoring system based method. The format is functional, organism-based.
Data set [5] concerns Rattus norvegicus. Briefly: Anti-pulmonary fibrosis activity in Sprague-Dawley rat model of BLM-induced idiopathic pulmonary fibrosis assessed as reduction in enhanced pause at 150 mg/kg, po dosed daily for 28 days by mka noninvasive pulmonary monitoring system based method. The format is functional, organism-based.
The subject of data set [6] is Rattus norvegicus. Description: Anti-pulmonary fibrosis activity in Sprague-Dawley rat model of BLM-induced idiopathic pulmonary fibrosis assessed as reduction in peak expiratory flow at 150 mg/kg, po dosed daily for 28 days by mka noninvasive pulmonary monitoring system based method. The data set is classed as functional, organism-based.
For data set [7], the system named is Rattus norvegicus. Description: Anti-pulmonary fibrosis activity in Sprague-Dawley rat model of BLM-induced idiopathic pulmonary fibrosis assessed as reduction in peak inspiratory flow at 150 mg/kg, po dosed daily for 28 days by mka noninvasive pulmonary monitoring system based method. The format is functional, organism-based.
Data set [8] has as its system Rattus norvegicus. Briefly: Anti-pulmonary fibrosis activity in Sprague-Dawley rat model of BLM-induced idiopathic pulmonary fibrosis assessed as reduction in end-expiratory pause at 150 mg/kg, po dosed daily for 28 days by mka noninvasive pulmonary monitoring system based method. The format is functional, organism-based.
In data set [9] the test system is Rattus norvegicus. Description: Anti-pulmonary fibrosis activity in Sprague-Dawley rat model of BLM-induced idiopathic pulmonary fibrosis assessed as reduction in mid-expiratory flow at 150 mg/kg, po dosed daily for 28 days by mka noninvasive pulmonary monitoring system based method. The data set is classed as functional, organism-based.
The subject of data set [10] is Rattus norvegicus. Description: Anti-pulmonary fibrosis activity in Sprague-Dawley rat model of BLM-induced idiopathic pulmonary fibrosis assessed as inhibition of collagen deposition at 150 mg/kg, po dosed daily for 28 days by Masson staining based assay. The data set is classed as functional, organism-based.
Data set [11] deals with Rattus norvegicus. Briefly: Anti-pulmonary fibrosis activity in Sprague-Dawley rat model of BLM-induced idiopathic pulmonary fibrosis assessed as reduction in lung structural damage at 150 mg/kg, po dosed daily for 28 days by H and E staining based assay. The data set is classed as functional, organism-based.
For data set [12], the target named is Dual specificity calcium/calmodulin-dependent 3',5'-cyclic nucleotide phosphodiesterase 1B (Homo sapiens, UniProt Q01064). Briefly: Inhibition of PDE1B (146 to 506 residues) (unknown origin) using [3H]-cGMP substrate incubated for 15 mins by liquid scintillation counting method.
Dual specificity calcium/calmodulin-dependent 3',5'-cyclic nucleotide phosphodiesterase 1B, sequence (Q01064 whole entry, the tested form may be a part): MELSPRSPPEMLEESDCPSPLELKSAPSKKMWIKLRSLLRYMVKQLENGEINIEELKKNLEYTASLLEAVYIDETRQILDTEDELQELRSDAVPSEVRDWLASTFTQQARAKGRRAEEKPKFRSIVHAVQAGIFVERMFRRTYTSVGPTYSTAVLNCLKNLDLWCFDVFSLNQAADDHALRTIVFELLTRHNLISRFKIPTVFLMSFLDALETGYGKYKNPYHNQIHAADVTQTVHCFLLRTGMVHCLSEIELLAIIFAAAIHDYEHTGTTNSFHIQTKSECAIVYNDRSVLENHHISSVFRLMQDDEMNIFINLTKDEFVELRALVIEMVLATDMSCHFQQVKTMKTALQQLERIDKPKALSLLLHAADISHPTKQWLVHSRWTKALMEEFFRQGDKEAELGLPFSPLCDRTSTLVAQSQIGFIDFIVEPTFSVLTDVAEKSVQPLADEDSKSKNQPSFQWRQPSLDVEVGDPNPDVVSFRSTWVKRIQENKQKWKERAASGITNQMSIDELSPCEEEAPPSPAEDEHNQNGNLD
For data set [13], the target named is High affinity cGMP-specific 3',5'-cyclic phosphodiesterase 9A (Homo sapiens, UniProt O76083). Briefly: Inhibition of PDE9A (181 to 506 residues) (unknown origin) using [3H]-cGMP substrate incubated for 15 mins by liquid scintillation counting method.
High affinity cGMP-specific 3',5'-cyclic phosphodiesterase 9A, sequence (O76083 whole entry, the tested form may be a part): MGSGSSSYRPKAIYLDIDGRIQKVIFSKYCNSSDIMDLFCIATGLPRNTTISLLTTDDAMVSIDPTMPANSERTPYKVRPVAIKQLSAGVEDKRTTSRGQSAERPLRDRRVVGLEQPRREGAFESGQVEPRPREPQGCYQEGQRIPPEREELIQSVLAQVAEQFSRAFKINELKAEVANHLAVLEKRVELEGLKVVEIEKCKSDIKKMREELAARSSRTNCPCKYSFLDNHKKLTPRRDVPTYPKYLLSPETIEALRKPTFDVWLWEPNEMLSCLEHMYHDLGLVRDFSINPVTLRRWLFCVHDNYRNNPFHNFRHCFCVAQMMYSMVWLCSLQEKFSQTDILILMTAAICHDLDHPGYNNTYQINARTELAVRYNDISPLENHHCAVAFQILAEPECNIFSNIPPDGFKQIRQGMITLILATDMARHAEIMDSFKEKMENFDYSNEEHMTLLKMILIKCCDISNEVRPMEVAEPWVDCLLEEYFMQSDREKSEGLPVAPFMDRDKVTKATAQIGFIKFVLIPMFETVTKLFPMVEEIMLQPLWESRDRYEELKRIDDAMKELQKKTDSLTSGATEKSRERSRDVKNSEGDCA

T1 sequence (Q14123 whole entry, the tested form may be a part): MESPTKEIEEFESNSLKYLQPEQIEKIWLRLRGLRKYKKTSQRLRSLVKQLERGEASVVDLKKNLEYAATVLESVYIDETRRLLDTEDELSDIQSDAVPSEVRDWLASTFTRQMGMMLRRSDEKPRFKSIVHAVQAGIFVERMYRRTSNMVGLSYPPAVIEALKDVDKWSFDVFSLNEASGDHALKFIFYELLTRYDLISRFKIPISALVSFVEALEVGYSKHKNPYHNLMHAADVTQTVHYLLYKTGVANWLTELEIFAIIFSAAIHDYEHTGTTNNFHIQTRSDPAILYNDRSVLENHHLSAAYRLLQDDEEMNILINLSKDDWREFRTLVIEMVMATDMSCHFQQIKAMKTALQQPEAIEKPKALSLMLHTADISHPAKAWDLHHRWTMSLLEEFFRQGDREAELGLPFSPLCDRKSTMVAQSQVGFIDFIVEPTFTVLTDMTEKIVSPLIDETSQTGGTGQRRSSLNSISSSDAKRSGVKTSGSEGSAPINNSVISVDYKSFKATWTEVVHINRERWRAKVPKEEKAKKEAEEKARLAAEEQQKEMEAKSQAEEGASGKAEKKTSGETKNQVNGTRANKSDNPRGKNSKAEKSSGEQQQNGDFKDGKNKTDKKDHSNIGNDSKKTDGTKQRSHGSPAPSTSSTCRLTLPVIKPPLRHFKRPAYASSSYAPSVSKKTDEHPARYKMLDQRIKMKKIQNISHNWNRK

In general, inhibition refers to how much of the control response was suppressed. With `CC(C)(C)n1ncc2c(=O)n(Cc3ccc(F)cc3)c(N[C@@H]3CCc4ccccc43)nc21`, the inhibition in [1] was found to be 54%.
As a reminder, the IC50 is the concentration that inhibits the measured activity by half. What is called half-life is how long it takes for the measured level to halve. A lower half-life goes with fast loss. Take `CC(C)n1ncc2c(=O)n(C)c(N[C@H](C)c3ccc(Cl)cc3)nc21`: the IC50 in data set [2] stood at 0.057 µM. In addition, the half-life in [3] was found to be 2.2 min.
For the compound `Cc1ccc(=O)n(-c2ccccc2)c1`, the result in data set [4], in data set [5], in data set [6], in data set [7], in data set [8] and in data set [9] was Active. Also, the result in data set [10] and in [11] was Active.
With `CC(C)n1ncc2c(=O)n(Cc3ccncc3)c(N[C@H](C)c3ccc(Cl)cc3)nc21`, in [1], the inhibition is 39%.
For `C[C@H](Nc1nc2c(cnn2C(C)(C)C)c(=O)n1Cc1ccccc1)c1ccc(Cl)cc1`, the IC50 in data set [2] turned out to be 0.157 µM.
Take `CC(C)Cn1c(N[C@H](C)c2ccc(Cl)cc2)nc2c(cnn2C2CCCC2)c1=O`: the inhibition in [1] stood at 5%.
`C[C@H](Nc1nc2c(cnn2C(C)(C)C)c(=O)n1Cc1ccccc1)c1ccc(F)cc1`: the IC50 in data set [2] was found to be 0.245 µM.
In the case of `C[C@@H](Nc1nc2c(cnn2C(C)(C)C)c(=O)n1Cc1ccccc1)c1ccc(F)cc1`, the IC50 in [2] amounted to 0.0026 µM.
As to `C[C@@H](Nc1nc2c(cnn2C2CCCC2)c(=O)n1Cc1ccccc1)c1ccc(Cl)cc1`, the figures for the IC50 in data set [2], in data set [12] and in data set [13] were 0.0047 µM, 0.023 µM and over 10 µM, respectively. In addition, the half-life in data set [3] is 0.5 min.
For the compound `C[C@@H](Nc1nc2c(cnn2C(C)(C)C)c(=O)n1Cc1ccc2c(c1)OCO2)c1ccc(Cl)cc1`, the IC50 in data set [2] turned out to be 0.027 µM. In addition, the half-life in [3] turned out to be 2.1 min.
The corresponding values for `CC(C)n1ncc2c(=O)n(Cc3ccccc3)c(N[C@H](C)c3ccc(Cl)cc3)nc21` are 0.0009 µM and 2.4 min.
As for `C[C@@H](Nc1nc2c(cnn2C2CCCC2)c(=O)n1C)c1ccc(Cl)cc1`, the IC50 in [2] is 0.258 µM.
As for `CC(C)n1ncc2c(=O)n(Cc3ccc4c(c3)OCO4)c(N[C@H](C)c3ccc(Cl)cc3)nc21`, the half-maximal inhibitory concentration (IC50) in data set [2] turned out to be 0.02 µM. This compound also displayed a half-life in data set [3] of 1.6 min.
As for `CC(C)(C)n1ncc2c(=O)n(Cc3ccc(F)cc3)c(N[C@H]3CCc4ccccc43)nc21`, in [1], the inhibition was found to be 37%.
Consider `C[C@@H](Nc1nc2c(cnn2C(C)(C)C)c(=O)n1Cc1ccccc1)c1ccc(Cl)cc1`, for which, in data set [2], the IC50 worked out at 0.0015 µM. Moreover, the half-life in [3] amounted to 8.2 min.
As to `C[C@@H](Nc1nc2c(cnn2C2CCCC2)c(=O)[nH]1)c1ccc(Cl)cc1`, the IC50 in data set [12] came out at 0.08 µM.
For the compound `CC1c2ccccc2CCN1c1nc2c(cnn2C(C)(C)C)c(=O)n1Cc1ccc(F)cc1` (stereo not given), the inhibition in data set [1] came to 16%.
Still for that read-out and setting: under `CC(C)n1ncc2c(=O)n(Cc3ccsc3)c(N[C@H](C)c3ccc(Cl)cc3)nc21` stands 47%.
Regarding `C[C@@H](Nc1nc2c(cnn2C(C)(C)C)c(=O)n1C)c1ccc(Cl)cc1`, in data set [2], the IC50 worked out at 0.065 µM.
For the compound `CCn1c(N[C@H](C)c2ccc(Cl)cc2)nc2c(cnn2C2CCCC2)c1=O`, in data set [1], the inhibition was determined as 13%.
